Measured values published in ChEMBL document CHEMBL6127083, “A mini-review on integrase inhibitors: The cornerstone of next-generation HIV treatment” (Eur J Med Chem, 2024).
Each block holds one molecule with its values, some of them ahead of it.

How the values were obtained:
[1] = biological target: Human immunodeficiency virus type 1 integrase (Human immunodeficiency virus 1) (UniProt Q7ZJM1); assay: Inhibition of HIV-1 integrase at 100 uM relative to control
[2] = tested on: Human immunodeficiency virus 1; assay: Antiviral activity against HIV1 IIIB harboring N155H mutant infected in MT4 cells assessed as reduction in virus induced cytopathic effect incubated for 5 days by MTT assay; assay type: functional, organism-based; details: Human immunodeficiency virus 1, IIIB, MT4, 120 h
[3] = tested on: Human immunodeficiency virus 1; assay: Antiviral activity against HIV1 IIIB harboring E138K mutant infected in MT4 cells assessed as reduction in virus induced cytopathic effect incubated for 5 days by MTT assay; assay type: functional, organism-based; details: Human immunodeficiency virus 1, IIIB, MT4, 120 h
[4] = Inhibition of wild type HIV integrase strand transfer activity; set-up: species or system Human immunodeficiency virus
[5] = tested on: Human immunodeficiency virus 1; assay: Antiviral activity against HIV1 IIIB harboring S230N mutant infected in MT4 cells assessed as reduction in virus induced cytopathic effect incubated for 5 days by MTT assay; assay type: functional, organism-based; details: Human immunodeficiency virus 1, IIIB, MT4, 120 h
[6] = tested on: Human immunodeficiency virus 1; assay: Antiviral activity against HIV-1 3B infected in human MT4 cells assessed as reduction in viral replication incubated for 5 days by MTT assay; assay type: functional, organism-based; details: Human immunodeficiency virus 1, 3B, MT4, 120 h
[7] = biological target: T1, Human immunodeficiency virus type 1 integrase (Human immunodeficiency virus 1, UniProt Q7ZJM1); assay: Inhibition of HIV-1 integrase
T1 sequence (Q7ZJM1 whole entry): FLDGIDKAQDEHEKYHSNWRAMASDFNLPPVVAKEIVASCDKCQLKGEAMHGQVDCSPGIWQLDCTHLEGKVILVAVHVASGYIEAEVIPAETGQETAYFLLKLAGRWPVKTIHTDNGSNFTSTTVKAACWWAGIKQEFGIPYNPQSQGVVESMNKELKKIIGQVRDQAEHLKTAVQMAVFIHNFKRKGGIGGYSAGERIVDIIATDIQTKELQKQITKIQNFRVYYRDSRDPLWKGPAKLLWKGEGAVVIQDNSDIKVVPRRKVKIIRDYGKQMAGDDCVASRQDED

[8] = biological target: T1, Human immunodeficiency virus type 1 integrase; assay: Inhibition of HIV-1 integrase incubated for 30 mins by strand transfer activity
[9] = Half life in rat; assay type: ADME; details: in vivo
[10] = tested on: Human immunodeficiency virus 1; assay: Antiviral activity against HIV-1 IIIB infected in human MT4 cells assessed as protection against virus induced cytopathic effect; assay type: functional, organism-based; details: Human immunodeficiency virus 1, IIIB
[11] = Cytotoxicity against human TZM-bl cells assessed as reduction in cell viability incubated for 48 hrs by MTT assay; assay type: toxicity, cell-based
[12] = Oral bioavailability in rat at 2 mg/kg by LC-MS/MS analysis; assay type: ADME, organism-based; details: in vivo
[13] = tested on: Human immunodeficiency virus 1; assay: Antiviral activity against HIV-1 IIIB infected in human MT2 cells assessed as reduction in virus induced cytopathic effect incubated overnight by ELISA method; assay type: functional, organism-based; details: Human immunodeficiency virus 1, 3B
[14] = tested on: Human immunodeficiency virus 1; assay: Antiviral activity against HIV1 harboring E138K mutant infected in MT4 cells assessed as reduction in virus induced cytopathic effect incubated for 5 days by MTT method; assay type: functional, organism-based; details: Human immunodeficiency virus 1, MT4, 120 h
[15] = biological target: T1, Human immunodeficiency virus type 1 integrase; assay: Inhibition of HIV-1 integrase strand transfer activity
[16] = tested on: Human immunodeficiency virus 1; assay: Antiviral activity against HIV-1 3B infected in human MT4 cells assessed as reduction in virus-induced cytopathic effect measured for 5 days by MTT assay; assay type: functional, organism-based; details: Human immunodeficiency virus 1, 3B, MT4, 120 h
[17] = biological target: Human immunodeficiency virus type 1 reverse transcriptase (Human immunodeficiency virus 1, UniProt Q72547); assay: Inhibition of recombinant HIV-1 reverse transcriptase associated RNase H extracted from Escherichia coli BL21 (DE3) by microplate reader analysis
[18] = biological target: Human immunodeficiency virus type 1 integrase (Human immunodeficiency virus 1) (UniProt Q7ZJM1); assay: Inhibition of HIV-1 integrase at 20 uM relative to control

Human immunodeficiency virus type 1 integrase (Human immunodeficiency virus 1), sequence (Q7ZJM1 as listed by the source): as the sequence (Q7ZJM1 whole entry) above

Structure (SMILES): CC(C)n1ccn2cc(C(=O)NCc3ccc(F)cc3F)c(=O)c(O)c2c1=O
IC50 [2]: 4.3 µM
EC50 [3]: 50 nM
IC50 [4]: 3800 nM
IC50 [5]: 4.8 µM

Structure (SMILES): [N-]=[N+]=NCc1cccc(C(=O)CC(=O)C(=O)O)c1
IC50 [6]: 2.1 µM

Structure (SMILES): CCCCCn1c(=O)c(C(=O)Nc2cccc([N+](=O)[O-])c2O)c(O)c2ccccc21
IC50 [7]: 9000 nM

Structure (SMILES): CC(C)N1CCn2cc(C(=O)NCc3ccc(F)cc3F)c(=O)c(O)c2C1=O
IC50 [2]: 5 µM
IC50 [4]: 1700 nM
IC50 [5]: 3 µM

Structure (SMILES): COc1ccc(C(=O)CC(=O)C(=O)O)cc1CN=[N+]=[N-]
IC50 [6]: > 25 µM

Structure (SMILES): [N-]=[N+]=NCc1cc(CN=[N+]=[N-])cc(C(=O)CC(=O)C(=O)O)c1
IC50 [6]: 5 µM

Structure (SMILES): CC(C)Oc1ccc(Cc2ccccc2)cc1C(=O)CC(=O)C(=O)O
IC50 [7]: 100 nM

Structure (SMILES): CC(C)Oc1ccc(Cc2ccccc2)cc1C(=O)/C=C(\O)C(=O)O
IC50 [7]: < 100 nM

Structure (SMILES): O=C(O)/C(O)=C/C(=O)c1cccc(Cc2ccccc2F)c1
EC50 [10]: 20 nM

Structure (SMILES): Cn1cc(-c2ccc3c(c2)OCO3)c2ccc(-c3ccncc3)nc21
CC50 at 48 h [11]: > 200 µM

Structure (SMILES): O=C(O)/C(O)=C/C(=O)c1ccc(OCc2ccccc2COc2cccc(C(=O)/C=C(\O)C(=O)O)c2)cc1
EC50 [13]: 39 µM

Structure (SMILES): C[C@H]1CO[C@@H]2Cn3cc(C(=O)NCc4ccc(F)cc4F)c(=O)c(O)c3C(=O)N12 [CABOTEGRAVIR]
EC50 [14]: 4.77 µM
IC50 [15]: 1800 nM

Structure (SMILES): O=C(O)/C(O)=C/C(=O)c1ccc(C(c2cccc(C(=O)/C=C(\O)C(=O)O)c2)c2ccccc2F)cc1 (centres undefined)
EC50 [13]: 17 µM

Structure (SMILES): O=C(O)/C(O)=C/C(=O)c1nc2ccccc2n1Cc1ccccc1F
EC50 [16]: 40 µM

Structure (SMILES): COc1ccc(-c2ccc3c(-c4ccc(F)cc4F)cn(C)c3n2)cc1
CC50 at 48 h [11]: 49.3 µM

Structure (SMILES): O=C(O)c1ccc2ccc(/C=C/c3cc(O)c(O)c(O)c3)nc2c1O
IC50 [7]: 1200 nM

Structure (SMILES): CC(C)Cn1ccn2cc(C(=O)NCc3ccc(F)cc3F)c(=O)c(O)c2c1=O
IC50 [2]: 3.6 µM
EC50 [3]: 60 nM
IC50 [4]: 3000 nM
IC50 [5]: 4.7 µM

Structure (SMILES): CCOC(=O)c1cc2cc(NC(=O)c3cnccn3)ccc2[nH]1
IC50 [8]: 11.7 µM

Structure (SMILES): [N-]=[N+]=NCc1ccc(C(=O)CC(=O)C(=O)O)cc1CN=[N+]=[N-]
IC50 [6]: 14.3 µM

Structure (SMILES): N#CCCc1cccc(C(=O)CC(=O)C(=O)O)c1
IC50 [6]: > 25 µM

Further lines, results first:

inhibition [1]: 50%
Structure (SMILES): NNC(=O)c1ncn(-c2ccc(Br)cc2)c1-c1cccc(F)c1

IC50 [8]: 3.11 µM
Structure (SMILES): O=C(O)c1cc2ccc(Nc3ccc(F)cc3)cc2[nH]1

half-life [9]: 372 min
Structure (SMILES): C[C@@H]1CCO[C@H]2Cn3cc(C(=O)NCc4ccc(F)cc4F)c(=O)c(O)c3C(=O)N12 [DOLUTEGRAVIR]

IC50 [7]: 900 nM
Structure (SMILES): Cn1c(=O)c(C(=O)O)c(O)c2cc(-c3ccc(F)cc3)ccc21

IC50 [8]: 32.3 µM
Structure (SMILES): O=C(O)c1cc2ccccc2[nH]1 [INDOLE-2-CARBOXYLIC ACID]

IC50 [8]: 10.1 µM
Structure (SMILES): CCOC(=O)c1[nH]c2ccccc2c1Nc1ccccc1OC

bioavailability [12]: 52%
Structure (SMILES): Cc1ccc(CCOc2ccc(-c3c(C)nc(C)c([C@H](OC(C)(C)C)C(=O)O)c3N3CCC(C)(C)CC3)cc2)cc1

EC50 [10]: 200 nM
Structure (SMILES): O=C(CCC(=O)/C(O)=C/C(=O)c1cccc(Cc2ccccc2F)c1)/C(O)=C/C(=O)c1cccc(Cc2ccccc2F)c1

IC50 [17]: 60 nM
Structure (SMILES): COC(=O)C1C(=O)N(O)C(=O)c2ccccc21 (centres undefined)

inhibition [18]: 39.9%
Structure (SMILES): COc1ccc2[nH]c(=O)c(CNC3CCCC3)cc2c1

IC50 [7]: 170 nM
Structure (SMILES): CC1COC2(C1)Cn1cc(C(=O)NCc3ccc(F)cc3F)c(=O)c(O)c1C(=O)C2(C)C (centres undefined)

IC50 [17]: 360 nM
Structure (SMILES): O=C(NCc1ccccc1)C1C(=O)N(O)C(=O)c2ccccc21 (centres undefined)

IC50 [7]: 1230 nM
Structure (SMILES): CC1COC2(C1)Cn1cc(C(=O)NCc3cccc(Cl)c3F)c(=O)c(O)c1C(=O)C2(C)C (centres undefined)

IC50 [7]: 1000 nM
Structure (SMILES): O=C(NCc1ccc(O)c(O)c1)c1ccc2ccc(C(=O)O)c(O)c2n1

IC50 [7]: 140 nM
Structure (SMILES): CC1COC2(C1)[C@H](C)n1cc(C(=O)NCc3ccc(F)cc3F)c(=O)c(O)c1C(=O)C2(C)C (some centres undefined)

EC50 [13]: 4.29 µM
Structure (SMILES): O=C(O)/C(O)=C/C(=O)c1cc2ccccc2n1-c1ccccc1

EC50 [13]: 4.29 µM
Structure (SMILES): COC(=O)/C(O)=C/C(=O)c1cc2cc3c(cc2n1-c1ccccc1)OCO3

IC50 [15]: 2400 nM
Structure (SMILES): O=C(NCc1c(F)cc(F)cc1F)c1cn2c(c(O)c1=O)C(=O)N1[C@H]3CC[C@H](C3)O[C@@H]1C2 [BICTEGRAVIR]

IC50 [8]: 10.5 µM
Structure (SMILES): O=C(O)c1[nH]c2ccc([N+](=O)[O-])cc2c1COCc1ccc(C(F)(F)F)cc1

IC50 [7]: 400 nM
Structure (SMILES): O=c1cc(-c2ccc(O)c(O)c2)oc2cc(O[C@@H]3O[C@H](CO)[C@@H](O)[C@H](O)[C@H]3OS(=O)(=O)O)cc(O)c12
